Measured values taken from paper PMC4363128 (Neuroscience, 2013).

Columns and labels:
[1] = test system: Y1 receptors; NK1R internalization in lamina I neurons; experiment: NK1R internalization evoked by dorsal root stimulation in spinal cord slices; format: cell-based, rat; details: BIBO3304 100 nM with 100 nM [Leu^31,Pro^34]NPY
Y1 receptor = biological target: T1, Y1 receptor (Mus musculus, UniProt Q04573); format: biochemical
T1 sequence (Q04573 1-382): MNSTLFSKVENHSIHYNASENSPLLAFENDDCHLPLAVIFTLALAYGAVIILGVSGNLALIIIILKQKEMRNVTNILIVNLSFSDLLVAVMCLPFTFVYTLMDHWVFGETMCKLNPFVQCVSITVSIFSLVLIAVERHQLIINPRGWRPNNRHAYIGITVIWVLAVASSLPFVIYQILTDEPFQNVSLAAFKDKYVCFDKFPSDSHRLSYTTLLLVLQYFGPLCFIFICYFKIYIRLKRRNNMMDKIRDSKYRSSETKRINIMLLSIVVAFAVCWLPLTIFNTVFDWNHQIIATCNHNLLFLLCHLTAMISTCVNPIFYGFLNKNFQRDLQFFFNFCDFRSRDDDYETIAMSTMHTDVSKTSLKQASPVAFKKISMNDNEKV

[2] = test system: NK1R internalization in dorsal horn lamina I neurons; format: in vivo, rat; details: intrathecal NPY one hour before hind paw clamp
[3] = test system: NK1R internalization in dorsal horn lamina I neurons; experiment: NK1R internalization evoked by non-noxious stimulus; format: in vivo, rat; details: intrathecal NPY, carrageenan-inflamed paw; printed 'by nearly 50%'

`NC(=O)NCc1ccc(CNC(=O)[C@@H](CCCN=C(N)N)NC(=O)C(c2ccccc2)c2ccccc2)cc1` [BIBO3304] was tested, and the “effect on inhibition of NK1R internalization produced by Y1 agonist” value [1] was “completely reversed” and the IC50 (Y1 receptor) was 7.85 nM.
With Neuropeptide Y [NPY] the “inhibition of evoked NK1R internalization” value [2] was 50% and the “inhibition of brush-evoked NK1R internalization” value [3] was about 50%.
